Reference: publication PMC6102549, “Synthesis and Evaluation of C15 Triene Urushiol Derivatives as Potential Anticancer Agents and HDAC2 Inhibitor” (Molecules : A Journal of Synthetic Chemistry and Natural …, 2018)

Legend:
Assay type in all cases: cell-based, human
HepG2 cells [1] = assay: Calcium content detection (Fluo-3 probe, flow cytometry); settings: for Mean (calcium, Fluo-3 fluorescence): 72 h
Procedure: Calcium content detection
(1) inoculate the logarithmic growth cells into the six-hole plate. The next day, after the cells are adhered to the wall, according to the group . The culture medium containing medicine was added and the negative control group was set up at the same time.
(§1) (2) after 72 hours of treatment, the cells were digested with 0.25% trypsin (excluding […]
(§2) (3) 5 × 10 ~ 5 cells were collected by PBS washing cells twice (centrifugation 2000rpm for 5 […]
(4) adding 5 μ M Fluo-3 probe and mixing it to 37 degrees to avoid light for 30 min;

HepG2 cells [2] = assay: Morphological observation of HepG2 cells; settings: 6.25, 25 and 50 μM
Procedure: The mortality rate of HepG2 cells was increasing faster on higher concentration of compound 1. The inhibition of cell proliferation strengthened over time. […] The cells became round, the volume became smaller and the refraction decreased. When the cells were treated with high concentration of compound 1, the cells were suspended and shed. The cells no longer adhered to the wall. They gradually became round, and the membrane ruptured, shrank and finally lost vitality.

HepG2 cells [3] = assay: Annexin-V FITC/PI double staining for apoptosis (flow cytometry); settings: 72 h
Procedure: After treating HepG2 cells with three concentrations of compound 1 for 72 h, flow cytometry was used to detect the apoptosis rate changes. […]
Detection of apoptosis by Annexin-V FITC/PI double staining
(1) inoculate the logarithmic growth cells into the six-hole plate. The next day, after the cells are adhered to the wall, according to the group . […]
as §1, §2
(4) adding 500 μ L Binding Buffer suspension cells;
(5) After adding 5 μ L Annexin V-FITC, adding 5 μ L Pi, mixing;
(6) at room temperature, no light, the reaction time was 5 ~ 15 min, and the apoptosis was detected by flow cytometry. […]

HDAC2 = assay: Western blot of HDAC2 expression in HepG2 cells; settings: versus hepatoma cell group, p < 0.05
Excerpt: The total protein was extracted from the logarithmic growth phase of hepatoma HepG2 cell line, and the expression of HDAC2 was detected by Western blot method with urushiol derivative compound 1(see Figure 3). […] The mechanism was probably related to the inhibition of HDAC2 expression.
Detection of cell proliferation by MTT
MTT assay was used to determine the inhibitory effect of the sample on the proliferation of HepG2 cells. The tumor cells of logarithmic growth stage were inoculated with 3.5 * 103 / well in 96 well culture plate. 0.2 ml/pore system was cultured for 72 h with different concentrations of samples. Then 20μL(final concentration 0.5 mg / mL) of MTT were added to each pore for 4 h. The supernatant was carefully adsorbed, DMSO 0.15 mL was added to each pore, and oscillatory mixing was carried out. The absorbance (A) value at 490 nm wavelength was measured by enzyme labeling instrument. The inhibition rate of cell proliferation was calculated as follows: [(A value of negative control group-A value of blank group)-(A value of experimental group A value of blank group)] / (negative pair group A-A value of blank group) × 100.Statistical method. The statistical analysis was carried out by SPSS 17.0 statistical software. The measured data were described by x ±s, and the mean of the two samples was compared with t test (P < 0. 05).
Materials and methods: Main reagents and instruments […]

HepG2 cells [4] = assay: PI single staining assay for cell cycle (flow cytometry); settings: for G1 (%) / G2 (%) / S (%): 72 h
Procedure: After the cells were tested with three different doses of Compound 1 (1, 3, and 12 μM), they were collected and detected by flow cytometry. […] Compared with the blank control group, the proportion of cells in G0/G1 phase of each dose of compound 1 increased gradually, but both the percentage of S stage cells and the proportion of cells in G2/M stage decreased to some extent. […]
Detection of cell cycle by PI single staining
1, the logarithmic growth phase were digested and inoculated into six well plates, the next day, after the cells adhered, according to the group set to join the corresponding drug containing medium, and the establishment of the negative control group; 2, after the action of 72h, the cells were digested with 0.25% pancreatin (not containing […]
3, 5 x 10^5 cells were collected by PBS scrubbing cells (centrifuge 2000rpm, 5min).
4, the single cell suspension prepared was fixed for 2 hours (or overnight) with a volume fraction of 70% ethanol, and stored at 4 ℃. Before washing, PBS was used to remove the fixative solution (if needed, cell suspension was filtered through 200 mesh mesh).
5 plus 100 mu L RNase A 37 ℃ water bath 30min;
6, adding 400 L PI dyeing and avoiding light 30min at 4 ℃.
7 check the machine and record the red fluorescence at the excitation wavelength of 488nm. […]

C/C=C\C=C\C/C=C\CCCCCCCc1cccc(O)c1O[Si](CCCS)(OC)OC [Compound 1]
Mean (calcium, Fluo-3 fluorescence) (HepG2 cells [1]; HepG2, 1 μm): 65.01
Mean (calcium, Fluo-3 fluorescence) (HepG2 cells [1]; HepG2, 3 μm): 94.39
Mean (calcium, Fluo-3 fluorescence) (HepG2 cells [1]; HepG2, 12 μm): 136.80
intracellular calcium concentration (in words) (HepG2 cells [1]; HepG2, compared with blank control group): increased
proliferation of HepG2 cells by morphological observation (in words) (HepG2 cells [2]): gradually inhibited
Apoptosis (%) (HepG2 cells [3]; HepG2, 1 μm): 15.73%
LL (%) (HepG2 cells [3]; HepG2, 1 μm): 82.71%
LR (%) (HepG2 cells [3]; HepG2, 1 μm): 9.38%
UL (%) (HepG2 cells [3]; HepG2, 1 μm): 1.56%
UR (%) (HepG2 cells [3]; HepG2, 1 μm): 6.35%
Apoptosis (%) (HepG2 cells [3]; HepG2, 3 μm): 32.60%
LL (%) (HepG2 cells [3]; HepG2, 3 μm): 67.33%
LR (%) (HepG2 cells [3]; HepG2, 3 μm): 16.42%
UL (%) (HepG2 cells [3]; HepG2, 3 μm): 0.07%
UR (%) (HepG2 cells [3]; HepG2, 3 μm): 16.18%
Apoptosis (%) (HepG2 cells [3]; HepG2, 12 μm): 47.87%
LL (%) (HepG2 cells [3]; HepG2, 12 μm): 48.91%
LR (%) (HepG2 cells [3]; HepG2, 12 μm): 37.68%
UL (%) (HepG2 cells [3]; HepG2, 12 μm): 3.24%
UR (%) (HepG2 cells [3]; HepG2, 12 μm): 10.19%
expression of HDAC2 protein (in words) (HDAC2): significantly lower
G1 (%) (HepG2 cells [4]; HepG2, 1 μM): 54.48%
G2 (%) (HepG2 cells [4]; HepG2, 1 μM): 15.79%
S (%) (HepG2 cells [4]; HepG2, 1 μM): 29.72%
G1 (%) (HepG2 cells [4]; HepG2, 3 μM): 60.17%
G2 (%) (HepG2 cells [4]; HepG2, 3 μM): 13.64%
S (%) (HepG2 cells [4]; HepG2, 3 μM): 26.19%
G1 (%) (HepG2 cells [4]; HepG2, 12 μM): 65.80%
G2 (%) (HepG2 cells [4]; HepG2, 12 μM): 13.79%
S (%) (HepG2 cells [4]; HepG2, 12 μM): 20.40%
effect on cell cycle (in words) (HepG2 cells [4]; HepG2, 1, 3 and 12 μM): block cells in G0/G1 phase
